We go through eight molecules from patent US20240100201A1, “Labeling precursors and radiotracers for nuclear medicine diagnosis and therapy of prostate cancer-induced bone metastases” (SCV-SpezialChemikalienVertrieb GmbH, priority 2021, published 2024).

Where two headings read alike, the source gives them in different places.

Data set [1] deals with T1, PSMA (Homo sapiens, UniProt Q04609).
T1 construct: PSMA-positive LNCaP cells from Sigma-Aldrich; host or cells: LNCaP cells
The data set is described as follows: competitive radioligand assay on PSMA-positive LNCaP cells (Ki). It is filed as binding. The protocol:
By means of comparative radioligand assays, binding affinity for PSMA is determined for the radiotracer or labeling precursor DOTA.L-Lys(SA.Pam)KuE-617 and reference structures. The Ki-value for [^natLu]Lu-DOTA.L-Lys(SA.Pam)KuE-617 corresponds roughly to the value for the labeling precursor DOTA.L-Lys(SA.Pam) KuE-617. […] Compared to DOTA.L-Lys.KuE-617—corresponding to structural formula (14) in scheme 31—the Ki of [^natLu]Lu-DOTA.L-Lys(SA.Pam)KuE-617 is greater by a factor of about 2. It can be seen from this that the squaric acid-pamidronate group reduces affinity for PSMA.
Non-active (cold) [natLu]Lu complexes are prepared by shaking a solution containing the labeling precursor DOTA-L-Lys(SA.Pam)-KuE-617 (371 μl, 1 mg/ml, 250 nmol) with LuCl3 (129 μl, 1 mg/ml, 375 nmol, metal to labeling precursor ratio 1.5:1) in 1 M ammonium acetate buffer at 95° C. for 2 hours. Complex formation is monitored by ESI-LC/MS.
PSMA binding affinity is determined by the competitive radioligand assay described by Benešová et al. (Benešová, M.; Schaefer, M.; Bauder-Wüst, U.; Afshar-Oromieh, A.; Kratochwil, C.; Mier, W.; Haberkorn, U.; Kopka, K.; Eder, M. Preclinical Evaluation of a Tailor-Made DOTA-Conjugated PSMA Inhibitor with Optimized Linker Moiety for Imaging and Endoradiotherapy of Prostate Cancer. J. Nucl. Med. 2015, 56 (6), 914-920.). For this purpose, PSMA-positive LNCaP cells from Sigma-Aldrich in RPMI 1640 (Thermo Fisher Scientific) supplemented with 10% fetal bovine serum (Thermo Fisher Scientific), 100 μg/ml streptomycin and 100 units/ml penicillin are cultured at 37° C. in 5% CO2. The LNCaP cells are incubated with increasing concentrations of solutions containing the labeling precursors in the presence of 0.75 nM [^68Ga]Ga-PSMA-10 for 45 min. Free radioactivity is removed by several washes with ice-cold PBS. The samples obtained are measured in a y counter (2480 WIZARD2 Automatic Gamma Counter, PerkinElmer). The measurement data are evaluated in GraphPad Prism 9 using non-linear regression.

The target in data set [2] is T1, PSMA. The data set is described as follows: cell-based competitive assay on LNCaP cells (PSMA affinity, IC50). The conditions noted are these: 45 min, 68Ga-labeled PSMA reference compound. Type of data set: binding. From the text:
Using a cell-based assay, the affinity of the KuE targeting vector with a lipophilic linker—analogously to PSMA-617—and with a squaric acid linker was examined using the compounds NH2.DOTAGA.KuE-617 and NH2.DOTAGA.QS.KuE (structural formulae (8) and (10) in scheme 32).
For the assay, LNCaP cells were pipetted into multiwell plates (Merck Millipore Multiscreen™). To the compounds to be analyzed, in increasing concentrations, was in each case added a defined amount or concentration of the reference compound ^68Ga[Ga]PSMA-with known Kdvalue, and the mixture was incubated in the wells with the LNCaP cells for 45 min. After washing several times, the cell-bound activity was determined.
In order to determine non-specific binding, an excess of the PSMA inhibitor 2-PMPA (2-(phosphonomethyl)[…]) was additionally added to all compounds, and they were subjected to the same LNCaP assay-as described above.

Data set [3] in a line: adsorption isotherms on hydroxyapatite by the method of Langmuir and Freundlich. It is filed as binding. The note with it: Langmuir-Freundlich. The procedure:
For this purpose, the adsorption therms are determined by the method of Langmuir and Freundlich.
For comparison, schemes 23 and 24 show conjugates of the chelator NODAGA with squaric acid pamidronate (NODAGA.QS.Pam) and NODAGA with zoledronate (NODAGA.Zol), and also the respective coefficients of adsorption KLF, measured by the method of Langmuir and Freundlich.

Data set [4] can be described thus: lipophilicity, partition in n-octanol and PBS. The conditions noted are these: pH 7.4. Type of data set: physicochemical. The protocol:
The lipophilicity of […] is determined by determining the partition equilibrium of the compound in a mixture of n-octanol and PBS.
LogD7.4 of the respective compound is determined via the partition coefficient in n-octanol and PBS. The labeling solution is adjusted to pH 7.4 and 5 MBq is diluted in 700 μl of n-octanol and 700 μl of PBS. It is shaken at 1500 rpm for 2 min and then centrifuged. 400 μl of the n-octanol phase and 400 μl of the PBS phase were each transferred to a new Eppendorf tube. 3-6 μl is then pipetted onto a TLC plate and analyzed using a phosphor imager. The logD7.4 is calculated based on the ratio of the activities of the two phases. The measurement of each phase is also repeated twice more with the sample of higher activity, such that three logD7.4 values can be obtained and an average can be calculated.

Data set [5] in a line: affinity for hydroxyapatite (HAP) of 177Lu-labeled compounds. The note with it: ordinary HAP, 1 h room temperature. Type of data set: binding. The protocol:
Calcium-containing crystalline hydroxyapatite is an essential component of mammalian bones and is suitable as a model substrate for the in vitro study of bisphosphonate accumulation in healthy bone tissue and bone metastases. […] In contrast, […] is found to have an HAP-enriched fraction of only 1.2%. In order to determine selectivity, accumulation on HAP previously treated with excess pamidronate was additionally measured.
Hydroxyapatite (20 mg) is incubated in saline (1 ml) for 24 h. 50 μl of the radiotracer [^177Lu]Lu-DOTA-L-Lys(SA.Pam)-KuE-617 (5 MBq) or [^177Lu]Lu-PSMA-617 (5 MBq) is added. Each suspension is vortexed with a vortex mixer for 20 s and incubated at room temperature for 1 h. […] The radioactivity of the liquids and HAP-containing supernatants obtained is measured in each case with a curiemeter (Isomed 2010 activimeter, MED Nuclear-Medizintechnik Dresden GmbH). The binding of [^177Lu]Lu-DOTA-L-Lys(SA.Pam)-KuE-617 and [^177Lu]Lu-PSMA-617 is determined as a percentage of the activity absorbed on HAP. As a reference, the HAP binding of free Lu-177 is measured in an analogous manner. […] For this purpose, HAP (20 mg) in saline solution (1 ml) is incubated with pamidronate (100 mg) and the respective activities of [^177Lu]Lu-DOTA-L-Lys(SA.Pam)-KuE-617 and free Lu-177 are determined.

Where [6] appears, read: LNCaP cells, 0.75 nM [68Ga]Ga-PSMA-10, 45 min, read-out: PSMA Ki.

T1 sequence (Q04609 whole entry): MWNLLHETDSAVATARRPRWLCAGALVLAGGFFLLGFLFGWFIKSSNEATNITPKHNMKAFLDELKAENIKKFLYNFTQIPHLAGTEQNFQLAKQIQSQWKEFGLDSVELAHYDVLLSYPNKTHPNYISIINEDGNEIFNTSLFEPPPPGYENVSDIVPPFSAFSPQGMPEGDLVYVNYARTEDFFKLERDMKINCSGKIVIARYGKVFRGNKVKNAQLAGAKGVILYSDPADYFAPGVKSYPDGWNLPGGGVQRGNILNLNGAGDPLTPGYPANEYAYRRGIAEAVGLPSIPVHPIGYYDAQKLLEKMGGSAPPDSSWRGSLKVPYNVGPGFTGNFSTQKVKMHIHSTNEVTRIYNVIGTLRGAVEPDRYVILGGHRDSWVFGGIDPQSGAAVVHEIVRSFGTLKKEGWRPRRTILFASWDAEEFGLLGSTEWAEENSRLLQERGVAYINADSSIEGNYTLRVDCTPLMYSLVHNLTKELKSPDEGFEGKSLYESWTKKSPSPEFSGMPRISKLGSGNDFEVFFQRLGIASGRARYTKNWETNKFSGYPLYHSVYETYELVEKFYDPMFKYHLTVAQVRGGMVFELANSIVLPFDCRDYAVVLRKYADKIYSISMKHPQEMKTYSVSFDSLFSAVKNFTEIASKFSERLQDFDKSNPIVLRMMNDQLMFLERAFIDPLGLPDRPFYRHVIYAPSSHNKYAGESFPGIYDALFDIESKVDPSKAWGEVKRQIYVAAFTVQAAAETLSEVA

The term Ki denotes a measure of affinity in units of concentration, obtained from inhibition or displacement. As to `O=C(O)CCC(NC(=O)NC(CCCCNC(=O)C(Cc1ccc2ccccc2c1)NC(=O)C1CCC(CNC(=O)C(CCCCNc2c(NCCC(O)(P(=O)(O)O)P(=O)(O)O)c(=O)c2=O)NC(=O)CN2CCN(CC(=O)O)CCN(CC(=O)O)CCN(CC(=O)O)CC2)CC1)C(=O)O)C(=O)O` [DOTA.L-Lys(SA.Pam)KuE-617], the inhibition constant (Ki) on PSMA [1] is 53 ± 4 nM.

Consider `NCCCCC(NC(=O)CN1CCN(CC(=O)O)CCN(CC(=O)O)CCN(CC(=O)O)CC1)C(=O)NCC1CCC(C(=O)NC(Cc2ccc3ccccc3c2)C(=O)NCCCCC(NC(=O)NC(CCC(=O)O)C(=O)O)C(=O)O)CC1` [DOTA.L-Lys.KuE-617], for which the inhibitory constant (Ki) on PSMA [1] (setting [6]) was determined as 20 ± 3 nM.

By IC50 is commonly meant the point on the concentration scale where inhibition reaches its midpoint. A low value points to greater potency. `NCCN1CCN(CC(=O)O)CCN(C(CCC(=O)NCC2CCC(C(=O)NC(Cc3ccc4ccccc4c3)C(=O)NCCCCC(NC(=O)NC(CCC(=O)O)C(=O)O)C(=O)O)CC2)C(=O)O)CCN(CC(=O)O)CC1` (stereo not drawn) [NH2.DOTAGA.KuE-617] came in with a half-inhibitory concentration (IC50) on PSMA [2] of 20.6 ± 3.4 nM.

For the molecule `NCCN1CCN(CC(=O)O)CCN(C(CCC(=O)NCCNc2c(NCCCCC(NC(=O)NC(CCC(=O)O)C(=O)O)C(=O)O)c(=O)c2=O)C(=O)O)CCN(CC(=O)O)CC1` (stereo not drawn) [NH2.DOTAGA.QS.KuE], the IC50 on PSMA [2] was found to be 20.2 ± 3.5 nM.

`O=C(O)CN1CCN(CC(=O)O)CCN(C(CCC(=O)NCCNc2c(NCCC(O)(P(=O)(O)O)P(=O)(O)O)c(=O)c2=O)C(=O)O)CC1` (stereo not drawn) [NODAGA.QS.Pam]: the “coefficient of adsorption KLF compared with NODAGA.Zol” value in data set [3] is “about three times greater”.

Take `O=C(O)CCC(NC(=O)NC(CCCCNC(=O)C(Cc1ccc2ccccc2c1)NC(=O)C1CCC(CNC(=O)CN2CCN(CC(=O)O)CCN(CC(=O)O)CCN(CC(=O)O)CC2)CC1)C(=O)O)C(=O)O` (stereo not drawn) [PSMA-617, reference compound]: on PSMA [1] (setting [6]), the Ki worked out at 7 ± 1 nM.

In turn, `O=C(O)CCC(NC(=O)NC(CCCCNC(=O)C(Cc1ccc2ccccc2c1)NC(=O)C1CCC(CNC(=O)CCC(C(=O)O)N2CCN(CC(=O)O)CCN(CCNc3c(NCCC(O)(P(=O)(O)O)P(=O)(O)O)c(=O)c3=O)CCN(CC(=O)O)CC2)CC1)C(=O)O)C(=O)O` (stereo not drawn) [Pam.SA.DOTAGA.KuE-617] returned an IC50 at PSMA [2] of 49.8 ± 10 nM.

Consider [^177Lu]Lu-PSMA-617, for which the “LogD7,4 (n-octanol/PBS)” value in data set [4] was −2.2 ± 0.20. Also, in data set [5], the “proportion bound to HAP” value was 1.2%.
